According to patent US20130136794A1, “HETEROARYL (ALKYL) DITHIOCARBAMATE COMPOUNDS, PREPARATION METHODS AND USES THEREOF” (PEKING UNIVERSITY, priority 2010, published 2013):

Key:
[1] = test system: human leukaemia HL-60 cells; assay: EC50 on proliferation of HL-60 cells (MTT, 48 h); format: cell-based; details: read-out: HL-60 EC50 (nmol)
Protocol: (§1) EC50 values of the compounds according to the present invention on the proliferation of human leukaemia HL-60 cells and Bel-7402 cells were determined by using the following method, and the results are shown in Table 2.
Testing method for EC50 values on the human leukaemia HL-60 cells: The human leukaemia HL-60 cells were cultured in vitro. The cells were collected after growth to logarithmic phase, and centrifugated at 1000 rpm for 5 min. The supernatant was discarded and the cells were suspended in an appropriate amount of medium. The cell concentration was adjusted to 1.2×10^4/mL. The cells were seeded into 96-well culture plates in 90 μL per well. For each well of the drug treatment groups, 10 μL of medium-diluted drug was added, whereas for the blank control groups, the same amount of medium was added. Every testing drug was set up for three parallel wells, and also three control wells with only testing drugs (without cell) were set up. Negative control groups were medium containing 0.5% DMSO. After the plate was incubated in an incubator for 48 h, 10 μL of 5 mg/mL MTT was added into each well, and then the plate was placed for 3 h at 37° C. 100 μL of ternary solution (5% SDS, 10 mM HCl, 5% isopropanol) was added into each well, and the plate was kept at 37° C. overnight. The absorbance (OD) was measured at 595 nm/620 nm. The EC50 values were calculated by using Prism Graphpad statistical software.

[2] = test system: Bel-7402 cells; assay: EC50 on proliferation of Bel7402 cells (SRB, 48 h); format: cell-based; details: Homo sapiens, read-out: Bel7402 EC50 (nmol)
Protocol: as §1
Testing method for ED50 values on the human Be17402ce11: After the cells were incubated with the addition of the drugs for 48 h, the plates were taken out. 50 μL of pre-cooled 500 g/L trichloroacetic acid was added into each well. The plates were kept in 4° C. refrigerator for 1 h after standing for 5 min, taken out, washed with deionized water for 5 times, and dried in the air. After the plates were completely dried, 100 μL of 0.4% SRB (formulated in 1% acetic acid) was added into each well. Following staining for 20 min, the staining solution was discarded, and the residue was washed with 1% acetic acid for 5 times to remove the uncombined dye. After being dried in the air, the residue was dissolved in 150 μL of 10 mmol/L unbuffered
Tris basic solution (pH=10.5), and oscillated in an oscillator for 5 min. The absorbance of each well at 490 nm was measured with TECAN enzyme mark instrument. The cells in background control plates were treated in the same way for measuring OD490. The EC50 values were calculated by using Prism Graphpad statistical software.

[3] = test system: HL-60 human leukaemia; assay: Inhibition of tumor cell proliferation at 10 μM, Model A: MTT method; format: cell-based; details: HL-60, MTT method, read-out: Model A Inhibitory rate (%)
Source text: (§2) The evaluation of the compounds according to the present invention on the inhibition rate of the proliferation of four different tumor cells, using the routine method for anti-tumor activity tests in the pharmaceutical filed, for example the method described in the following literature: (J. Immuno/Method, 1983, 65, 55).

[4] = test system: BGC-823 human gastric cancer; assay: Inhibition of tumor cell proliferation at 10 μM, Model B: SRB method; format: cell-based; details: BGC-823, SRB method, read-out: Model B Inhibitory rate (%)
Source text: as §2

[5] = test system: Bel-7402 human liver cancer; assay: Inhibition of tumor cell proliferation at 10 μM, Model C: SRB method; format: cell-based; details: Bel-7402, SRB method, read-out: Model C Inhibitory rate (%)
Source text: as §2

[6] = test system: KB human nasopharyngeal cancer; assay: Inhibition of tumor cell proliferation at 10 μM, Model D: SRB method; format: cell-based; details: read-out: Model D Inhibitory rate (%)
Source text: as §2

| EC50 [1] | EC50 [2] | melting point | Compound | inhibition at 10 µM [3] | inhibition at 10 µM [4] | inhibition at 10 µM [5] | inhibition at 10 µM [6] |
| --- | --- | --- | --- | --- | --- | --- | --- |
| 7.88 nM | 17.9 nM | 221 to 224 °C | Cc1nc(-c2ccccc2)oc1CNC(=S)SCCC#N [Compound 34, 2-cyanoethyl[(4-methyl-2-phenyloxazol-5-yl)methyl]dithiocarbamate] | – | – | – | – |
| 0.796 nM | 18.8 nM | – | N#CCCSC(=S)NCCc1cccnc1 [Compound 19, 2-cyanoethyl[2-(pyridin-3-yl)ethyl]dithiocarbamate] | – | – | – | – |
| 109 nM | 296 nM | 76 to 78 °C | N#CCCSC(=S)NCc1nccs1 [Compound 38, 2-cyanoethyl(thiazol-2-ylmethyl)dithiocarbamate] | – | – | – | – |
| 134 nM | 2.2 nM | – | CN(Cc1cccnc1)C(=S)SCCC#N [Compound 29, 2-cyanoethyl N-methyl-(pyridin-3-ylmethyl)dithiocarbamate] | – | – | – | – |
| 4.7 nM | 234 nM | 118 to 120 °C | N#CCCSC(=S)NC(c1ccccc1)c1cccnc1 (centres unmarked) [Compound 31, 2-cyanoethyl[phenyl(pyridin-3-yl)methyl]dithiocarbamate] | – | – | – | – |
| 11.8 nM | 18.6 nM | 156 to 158 °C | N#CCCSC(=S)NCc1nnc(-c2ccccc2)s1 [Compound 45, 2-cyanoethyl[(5-phenyl-1,3,4-thiadiazol-2-yl)methyl]dithiocarbamate] | – | – | – | – |
| 4.91 nM | 20.5 nM | 102 to 108 °C | N#CCCSC(=S)NCc1cncc(Br)c1 [Compound 24, 2-cyanoethyl[(5-bromopyridin-3-yl)methyl]dithiocarbamate] | – | – | – | – |
| 5.18 nM | 327 nM | 120 to 122 °C | N#CCCSC(=S)NCc1cnc2ccccc2c1 [Compound 18, 2-cyanoethyl(quinolin-3-ylmethyl)dithiocarbamate] | – | – | – | – |
| 4.17 nM | 4.26 nM | – | Cc1cc(CNC(=S)SCCC#N)n(C)n1 [Compound 37, 2-cyanoethyl[(1,3-dimethyl-1H-pyrazol-5-yl)methyl]dithiocarbamate] | – | – | – | – |
| 0.813 nM | 109 nM | 90 to 92 °C | COc1ccc(CNC(=S)SCCC#N)cn1 [Compound 33, 2-cyanoethyl[(6-methoxypyridin-3-yl)methyl]dithiocarbamate] | – | – | – | – |
| 0.8 nM | 7.67 nM | 88 to 92 °C | COc1ncccc1CNC(=S)SCCC#N [Compound 20, 2-cyanoethyl[(2-methoxypyridin-3-yl)methyl]dithiocarbamate] | – | – | – | – |
| – | – | 168 to 171 °C | N#CCCSC(=S)NCc1cncnc1 [Compound 36, 2-cyanoethyl(pyrimidin-5-ylmethyl)dithiocarbamate] | – | – | – | – |
| 0.557 nM | 10.3 nM | 86 to 90 °C | COc1cncc(CNC(=S)SCCC#N)c1 [Compound 23, 2-cyanoethyl[(5-methoxypyridin-3-yl)methyl]dithiocarbamate] | – | – | – | – |
| – | – | – | OB(O)CCSC(=S)NCc1ccco1 [Compound 6, 2-boronoethyl(furan-2-ylmethyl)dithiocarbamate] | 0.06% | 14.5% | 2.9% | 1.68% |
| 3.28 nM | 64.8 nM | – | CC(NC(=S)SCCC#N)c1cccnc1 (centres unmarked) [Compound 32, 2-cyanoethyl[1-(pyridin-3-yl)ethyl]dithiocarbamate] | – | – | – | – |
| 14.2 nM | 25.7 nM | 148 to 152 °C | N#CCCSC(=S)NCc1nnc(-c2ccccc2)o1 [Compound 40, 2-cyanoethyl[(5-phenyl-1,3,4-oxadiazol-2-yl)methyl]dithiocarbamate] | – | – | – | – |

| EC50 [1] | EC50 [2] | melting point | Compound | inhibition at 10 µM [3] | inhibition at 10 µM [4] | inhibition at 10 µM [5] | inhibition at 10 µM [6] |
| --- | --- | --- | --- | --- | --- | --- | --- |
| – | – | – | C[S+]([O-])CCSC(=S)NCc1cccnc1 (centres unmarked) [Compound 15, 2-(methylsulfinyl)ethyl(pyridin-3-ylmethyl)dithiocarbamate] | 26.1% | 9.95% | -2.37% | 3.58% |
| 0.548 nM | 48.9 nM | – | N#CCCSC(=S)NCc1ccc(Oc2ccccc2)nc1 [Compound 27, 2-cyanoethyl[(6-phenoxypyridin-3-yl)methyl]dithiocarbamate] | – | – | – | – |
| 6.05 nM | 24.9 nM | – | Cc1c(CNC(=S)SCCC#N)cnn1-c1ccccc1 [Compound 35, 2-cyanoethyl[(5-methyl-1-phenyl-1H-pyrazol-4-yl)methyl]dithiocarbamate] | – | – | – | – |
| > 1000 nM | > 1000 nM | 96 to 99 °C | N#CCCSC(=S)NCc1cnccn1 [Compound 39, 2-cyanoethyl(pyrazin-2-ylmethyl)dithiocarbamate] | – | – | – | – |
| 4.78 nM | 21.1 nM | 118 to 120 °C | N#CCCSC(=S)NCc1ccc(-c2ccco2)nc1 [Compound 25, 2-cyanoethyl{[6-(furan-2-yl)pyridin-3-yl]methyl}dithiocarbamate] | – | – | – | – |
| 4.82 nM | 3.48 nM | 81 to 83 °C | N#CCCSC(=S)NCCCc1cccnc1 [Compound 42, 2-cyanoethyl[3-(pyridin-3-yl)propyl]dithiocarbamate] | – | – | – | – |
| 82.2 nM | 96.4 nM | 117 to 118 °C | CN1CCOC2C=C(CNC(=S)SCCC#N)C=NC21 (centres unmarked) [Compound 26, 2-cyanoethyl[(4-methyl-3,4,4a,8a-tetrahydro-2/4-pyrido[3,2-b][1 ,4]oxazin-7-yl)-methyl]dithiocarbamate] | – | – | – | – |
| 80.7 nM | 286 nM | – | N#CCCSC(=S)Nc1cccnc1 [Compound 30, 2-cyanoethyl pyridin-3-yldithiocarbamate] | – | – | – | – |
| 1.72 nM | 23.4 nM | 138 to 142 °C | Cc1cc(C)c(CNC(=S)SCCC#N)cn1 [Compound 22, 2-cyanoethyl[(4,6-dimethylpyridin-3-yl)methyl]dithiocarbamate] | – | – | – | – |
| 0.473 nM | 32.3 nM | 122 to 124 °C | CC(C)(C)C(=O)Nc1ccncc1CNC(=S)SCCC#N [Compound 17, 2-cyanoethyl[(4-pivalamidopyridin-3-yl)methyl]dithiocarbamate] | – | – | – | – |
| – | – | – | NS(=O)(=O)CCSC(=S)NCc1cccnc1 [Compound 13, 2-sulfamoylethyl(pyridin-3-ylmethyl)dithiocarbamate] | -4.25% | 18.4% | 5.87% | 17.6% |
| – | – | – | N#CCCSC(=S)NCc1ccco1 [Compound 3, 2-cyanoethyl(furan-2-ylmethyl)dithiocarbamate] | 24.6% | 29.5% | 68.2% | 55.1% |
| 282 nM | 227 nM | – | N#CCCSC(=S)NCc1ccc[nH]1 [Compound 46, 2-cyanoethyl[(1H-pyrrol-2-yl)methyl]dithiocarbamate] | – | – | – | – |
| 56.5 nM | 10.5 nM | – | N#CCCSC(=S)NCc1ccncc1 [Compound 28, 2-cyanoethyl(pyridin-4-ylmethyl)dithiocarbamate] | – | – | – | – |
| 5.03 nM | 22.4 nM | 151 to 154 °C | N#CCCSC(=S)NCc1cnc(N2CCOCC2)nc1 [Compound 41, 2-cyanoethyl[(2-morpholinopyrimidin-5-yl)methyl]dithiocarbamate] | – | – | – | – |
| 6.93 nM | 116 nM | 106 to 112 °C | COC(=O)c1ccc(CNC(=S)SCCC#N)cn1 [Compound 21, 2-cyanoethyl[(6-methoxycarbonylpyridin-3-yl)methyl]dithiocarbamate] | – | – | – | – |
